Laboratory results taken from US20230322761A1, “DEGRADATION OF BRUTON'S TYROSINE KINASE (BTK) BY CONJUGATION OF BTK INHIBITORS WITH E3 LIGASE LIGAND AND METHODS OF USE” (BEIGENE, LTD., priority 2020, published 2023).

molecular target: T1, BTK (Homo sapiens, UniProt Q06187); assay: BTK degradation in TMD-8 cells, HTRF assay after 6 h treatment; assay type: cell-based; conditions: IC50 (DC50) of BTK degradation
T1 construct: endogenous in cells; host or cells: TMD-8 cells
In short: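 TMD-8 cells treated for 6 h with 8 compound doses in 6-fold dilution steps from a 1 mM 500× DMSO stock (0.2% DMSO), then lysed 30 min at room temperature. BTK in lysate detected by HTRF (665/620 nm) after overnight antibody incubation; DC50 from four-parameter curve fit.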

T1 sequence (Q06187 whole entry): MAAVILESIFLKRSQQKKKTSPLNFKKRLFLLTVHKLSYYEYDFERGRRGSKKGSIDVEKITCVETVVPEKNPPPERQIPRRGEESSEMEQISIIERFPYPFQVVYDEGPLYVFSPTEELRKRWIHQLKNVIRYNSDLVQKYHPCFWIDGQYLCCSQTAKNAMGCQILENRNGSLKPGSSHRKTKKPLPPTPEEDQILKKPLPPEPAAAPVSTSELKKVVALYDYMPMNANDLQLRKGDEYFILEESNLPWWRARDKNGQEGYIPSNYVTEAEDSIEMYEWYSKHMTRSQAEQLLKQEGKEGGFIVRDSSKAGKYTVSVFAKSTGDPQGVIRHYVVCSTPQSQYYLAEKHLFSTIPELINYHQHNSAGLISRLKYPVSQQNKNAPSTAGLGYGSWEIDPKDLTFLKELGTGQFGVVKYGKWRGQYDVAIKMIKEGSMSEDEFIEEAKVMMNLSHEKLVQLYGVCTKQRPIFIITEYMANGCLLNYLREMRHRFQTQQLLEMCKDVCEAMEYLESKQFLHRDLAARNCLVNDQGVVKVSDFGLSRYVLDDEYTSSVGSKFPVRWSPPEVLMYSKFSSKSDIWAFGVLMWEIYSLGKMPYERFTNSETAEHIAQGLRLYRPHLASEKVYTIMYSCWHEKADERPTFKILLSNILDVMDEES

Compared with Cc1cc(-c2n[nH]c3ncc(-c4ccc(N5CCN(CC6CCN(c7ccc(N8CCC(=O)NC8=O)cc7)CC6)CC5)cn4)cc23)ccc1CNC(=O)c1noc(C(C)(C)C)n1 [Example 66, 5-(tert-butyl)-N-(4-(5-(5-(4-((1-(4-(2,4-dioxotetrahydropyrimidin-1(2H)-yl)phenyl)piperidin-4-yl)methyl)piperazin-1-yl)pyridin-2-yl)-1H-pyrazolo[3,4-b]pyridin-3-yl)-2-methylbenzyl)-1,2,4-oxadiazole-3-carboxamide], Cc1cc(-c2n[nH]c3ncc(-c4ccc(C5CCN(CC6CCN(c7ccc(N8CCC(=O)NC8=O)cc7)CC6)CC5)cc4)cc23)ccc1CNC(=O)c1noc(C(C)(C)C)n1 [Example 1, 5-(tert-butyl)-N-(4-(5-(4-(1-((1-(4-(2,4-dioxotetrahydropyrimidin-1(2H)-yl)phenyl)piperidin-4-yl)methyl)piperidin-4-yl)phenyl)-1H-pyrazolo[3,4-b]pyridin-3-yl)-2-methylbenzyl)-1,2,4-oxadiazole-3-carboxamide] is 5.4-fold lower in DC50: 5.32 nM for the first, 0.978 nM for the second.

Cc1cc(-c2n[nH]c3ncc(-c4ccc(N5CCN(C6CC(c7ccc([C@H]8CCC(=O)NC8=O)cc7)C6)CC5)cc4)cc23)ccc1[C@@H](C)NC(=O)c1noc(C(C)(C)C)n1 (stereo partly drawn) [Example 224, 5-(tert-butyl)-N—((R)-1-(4-(5-(4-(4-((1S,3r)-3-(4-((R)-2,6-dioxopiperidin-3-yl)phenyl)cyclobutyl)piperazin-1-yl)phenyl)-1H-pyrazolo[3,4-b]pyridin-3-yl)-2-methylphenyl)ethyl)-1,2,4-oxadiazole-3-carboxamide] and Cc1cc(-c2n[nH]c3ncc(-c4ccc(CCN5CCN(c6ccc(N7CCC(=O)NC7=O)cc6)CC5)cc4)cc23)ccc1[C@@H](C)NC(=O)c1noc(C(C)(C)C)n1 [Example 128, (R)-5-(tert-butyl)-N-(1-(4-(5-(4-(2-(4-(4-(2,4-dioxotetrahydropyrimidin-1(2H)-yl)phenyl)piperazin-1-yl)ethyl)phenyl)-1H-pyrazolo[3,4-b]pyridin-3-yl)-2-methylphenyl)ethyl)-1,2,4-oxadiazole-3-carboxamide] are within 1.5-fold of each other in DC50: 6.16 nM for the first, 5.84 nM for the second.

First: Cc1cc(-c2n[nH]c3ncc(-c4ccc(C5CCN(CC6CCN(c7ccc(N8CCC(=O)NC8=O)cc7)CC6)CC5)cc4)cc23)c(F)cc1CNC(=O)c1noc(C(C)(C)C)n1 [Example 222, 5-(tert-butyl)-N-(4-(5-(4-(1-((1-(4-(2,4-dioxotetrahydropyrimidin-1(2H)-yl)phenyl)piperidin-4-yl)methyl)piperidin-4-yl)phenyl)-1H-pyrazolo[3,4-b]pyridin-3-yl)-5-fluoro-2-methylbenzyl)-1,2,4-oxadiazole-3-carboxamide]
Second: Cc1c([C@@H](C)NC(=O)c2noc(C(C)(C)C)n2)ccc(-c2n[nH]c3ncc(-c4ccc(N5CCN(CC6CCN(c7ccc(N8CCC(=O)NC8=O)cc7)CC6)CC5)cc4)cc23)c1F [Example 43, (R)-5-(tert-butyl)-N-(1-(4-(5-(4-(4-((1-(4-(2,4-dioxotetrahydropyrimidin-1(2H)-yl)phenyl)piperidin-4-yl)methyl)piperazin-1-yl)phenyl)-1H-pyrazolo[3,4-b]pyridin-3-yl)-3-fluoro-2-methylphenyl)ethyl)-1,2,4-oxadiazole-3-carboxamide]
The DC50 of the first is 4.7-fold higher: 16.1 nM for the first, 3.44 nM for the second.

Cc1cc(-c2n[nH]c3ncc(-c4ccc(N5CCN(CCc6ccc(C7CCC(=O)NC7=O)cc6)CC5)cn4)cc23)ccc1CNC(=O)c1noc(C(C)(C)C)n1 (stereo not drawn) [Example 103, 5-(tert-butyl)-N-(4-(5-(5-(4-(4-(2,6-dioxopiperidin-3-yl)phenethyl)piperazin-1-yl)pyridin-2-yl)-1H-pyrazolo[3,4-b]pyridin-3-yl)-2-methylbenzyl)-1,2,4-oxadiazole-3-carboxamide] and Cc1cc(-c2n[nH]c3ncc(-c4ccc(C5CCN(CCc6ccc(C7CCC(=O)NC7=O)cc6)CC5)cc4)cc23)ccc1CNC(=O)c1nc(C(C)(C)C)no1 (stereo not drawn) [Example 9, 3-(tert-butyl)-N-(4-(5-(4-(1-(4-(2,6-dioxopiperidin-3-yl)phenethyl)piperidin-4-yl)phenyl)-1H-pyrazolo[3,4-b]pyridin-3-yl)-2-methylbenzyl)-1,2,4-oxadiazole-5-carboxamide] are within 1.5-fold of each other in DC50: 1.31 nM for the first, 1.9 nM for the second.

Compared with Cc1cc(-c2n[nH]c3ncc(-c4ccc(N5CCN(CCn6cc(N7CCC(=O)NC7=O)cn6)CC5)cc4)cc23)ccc1[C@@H](C)NC(=O)c1noc(C(C)(C)C)n1 [Example 143, (R)-5-(tert-butyl)-N-(1-(4-(5-(4-(4-(2-(4-(2,4-dioxotetrahydropyrimidin-1(2H)-yl)-1H-pyrazol-1-yl)ethyl)piperazin-1-yl)phenyl)-1H-pyrazolo[3,4-b]pyridin-3-yl)-2-methylphenyl)ethyl)-1,2,4-oxadiazole-3-carboxamide], Cc1cc(-c2n[nH]c3ncc(-c4ccc(N5CCN(CC6CCN(c7ccc(N8CCC(=O)NC8=O)cc7)CC6)CC5)cc4)cc23)ccc1[C@@H](C)NC(=O)c1nnc(C(C)(C)C)o1 [Example 225, (R)-5-(tert-butyl)-N-(1-(4-(5-(4-(4-((1-(4-(2,4-dioxotetrahydropyrimidin-1(2H)-yl)phenyl)piperidin-4-yl)methyl)piperazin-1-yl)phenyl)-1H-pyrazolo[3,4-b]pyridin-3-yl)-2-methylphenyl)ethyl)-1,3,4-oxadiazole-2-carboxamide] is 2-fold lower in DC50: 18.8 nM for the first, 9.45 nM for the second.

Compared with Cc1c([C@@H](C)NC(=O)c2nc(C(C)(C)C)no2)ccc(-c2n[nH]c3ncc(-c4ccc(N5CCN(CC6CCN(c7ccc(N8CCC(=O)NC8=O)cc7)CC6)CC5)cc4)cc23)c1F [Example 45, (R)-3-(tert-butyl)-N-(1-(4-(5-(4-(4-((1-(4-(2,4-dioxotetrahydropyrimidin-1(2H)-yl)phenyl)piperidin-4-yl)methyl)piperazin-1-yl)phenyl)-1H-pyrazolo[3,4-b]pyridin-3-yl)-3-fluoro-2-methylphenyl)ethyl)-1,2,4-oxadiazole-5-carboxamide], Cc1cc(-c2n[nH]c3ncc(-c4ccc(N5CCN(CC6CCN(c7ccc(N8CC(=O)NC8=O)cc7)CC6)CC5)cc4)cc23)ccc1[C@@H](C)NC(=O)c1nc(C(C)(C)C)no1 [Example 218, (R)-3-(tert-butyl)-N-(1-(4-(5-(4-(4-((1-(4-(2,4-dioxoimidazolidin-1-yl)phenyl)piperidin-4-yl)methyl)piperazin-1-yl)phenyl)-1H-pyrazolo[3,4-b]pyridin-3-yl)-2-methylphenyl)ethyl)-1,2,4-oxadiazole-5-carboxamide] is 8.8-fold higher in DC50: 2.15 nM for the first, 19 nM for the second.

With Cc1cc(-c2n[nH]c3ncc(-c4ccc(N5CCN(CC6CCN(c7ccc(N8CCC(=O)NC8=O)c(C)c7)CC6)CC5)nc4)cc23)ccc1CNC(=O)c1nc(C(C)(C)C)no1 [Example 228, 3-(tert-butyl)-N-(4-(5-(6-(4-((1-(4-(2,4-dioxotetrahydropyrimidin-1(2H)-yl)-3-methylphenyl)piperidin-4-yl)methyl)piperazin-1-yl)pyridin-3-yl)-1H-pyrazolo[3,4-b]pyridin-3-yl)-2-methylbenzyl)-1,2,4-oxadiazole-5-carboxamide] the DC50 was 2.02 nM.

same assay, conditions: TMD8, maximum percentage of inhibition (degradation)

First: Cc1cc(-c2n[nH]c3ncc(-c4ccc(C5CCN(CCc6ccc(C7CCC(=O)NC7=O)cc6)CC5)cc4)cc23)ccc1CNC(=O)c1nc(C(C)(C)C)no1 (stereo not drawn) [Example 9, 3-(tert-butyl)-N-(4-(5-(4-(1-(4-(2,6-dioxopiperidin-3-yl)phenethyl)piperidin-4-yl)phenyl)-1H-pyrazolo[3,4-b]pyridin-3-yl)-2-methylbenzyl)-1,2,4-oxadiazole-5-carboxamide]
Second: Cc1cc(-c2n[nH]c3ncc(-c4ccc(C5CCN(CC6CCN(c7ccc(N8CCC(=O)NC8=O)cc7)CC6)CC5)cc4)cc23)ccc1CNC(=O)c1noc(C(C)(C)C)n1 [Example 1, 5-(tert-butyl)-N-(4-(5-(4-(1-((1-(4-(2,4-dioxotetrahydropyrimidin-1(2H)-yl)phenyl)piperidin-4-yl)methyl)piperidin-4-yl)phenyl)-1H-pyrazolo[3,4-b]pyridin-3-yl)-2-methylbenzyl)-1,2,4-oxadiazole-3-carboxamide]
The Dmax of the first is higher: 100% for the first, 96.7% for the second.
